Reference: patent publication US20170216355A1, “Methods and Compositions for Enhancing T Cell Function and Survival” (Augusta University Research Institute, Inc., priority 2016, published 2017)
Entries after “also recorded” stand apart in the source; their conditions may differ.

Tests used:
[1] = test system: CD8 T cells from pMel-1 mice; assay: Phenotyping of gp100-activated CD8 T cells (CD62L/CD44 flow cytometry); assay type: cell-based, mouse; settings: for phenotype of CD8 T cells (TCM vs TEM) compared to non-treated cells: after 3 days of stimulation with 1 μM gp100 25-33 (7 days culture); for CD62L expression level: day 3, and day 7 after each stimulation with gp100
Experimental: CD8 T cells from pMel-1 mice were activated in vitro as previously described^5. Briefly, homogenized pMel-1 splenocytes were stimulated with gp10025-33 peptide at a 1 μM concentration (day 0). Cells were cultured in RPMI 1640 (Lonza) supplemented with 10% FBS, penicillin (100 U/mL), streptomycin ([…]), 0.1% β-mercaptoethanol (Life Technologies, Invitrogen) and IL-2 (100 U/ml) (Peprotech) at 37° C. with 5% CO2. pMel-1 cells were cultured with or without the different PI3K inhibitors. The concentration of the inhibitors was maintained throughout the culture by changing the media every 48-72 hours.
On Days 7, 14 and 21, cells were re-stimulated with gp10025-33 peptide at a 1 μM concentration using feeder cells (irradiated WT splenocytes, 4000 Rads) at 1:1 ratio using the same culture conditions.
Cells were labeled with 5 μM Violet Cell Trace (VCT) proliferation dye (Life Technologies, Invitrogen) prior to their stimulation (day 0) following the manufacturers' instructions. The proliferation of CD8 T cells was assessed via VCT dye dilution (day 3) using an LSRII SORP with HTS Flow Cytometer (BD Biosciences). The data were analyzed using FlowJo 10 (Tree Star). The cultured cells were harvested on days 3, 7, 14 and 21 to assess their phenotype. Cells were stained with the following surface marker antibodies (BD Biosciences): APC-Cy7 labeled anti-CD8, FITC labeled anti-Vβ13, PE labeled anti-CD62L, APC labeled anti-CD44, PE-CF594 labeled anti-CD127, APC labeled anti-KLRG-1 in addition to the viability stain 7AAD. All the analyses were performed on viable (7AAD−), Vβ13+CD8+ T cells.

[2] = test system: CD8 T cells from pMel-1 mice; assay: Proliferation assay (VCT dye dilution) and fold expansion of CD8 T cells; assay type: cell-based, mouse
Experimental: CD8 T cells from pMel-1 mice were activated in vitro as previously described^5. […] The concentration of the inhibitors was maintained throughout the culture by changing the media every 48-72 hours. […] The data were analyzed using FlowJo 10 (Tree Star). […] Cells were stained with the following surface marker antibodies (BD Biosciences): APC-Cy7 labeled anti-CD8, FITC labeled anti-Vβ13, PE labeled anti-CD62L, APC labeled anti-CD44, PE-CF594 labeled anti-CD127, APC labeled anti-KLRG-1 in addition to the viability stain 7AAD. All the analyses were performed on viable (7AAD−), Vβ13+CD8+ T cells.

[3] = test system: CD8 T cells from pMel-1 mice; assay: Cytometric Bead Array of IL-2, TNF and IFN-γ secretion; assay type: cell-based, mouse
p110δ = p110δ (Homo sapiens, UniProt O00329); settings: cited from earlier work
Sequence of p110δ (O00329 whole entry, species assumed): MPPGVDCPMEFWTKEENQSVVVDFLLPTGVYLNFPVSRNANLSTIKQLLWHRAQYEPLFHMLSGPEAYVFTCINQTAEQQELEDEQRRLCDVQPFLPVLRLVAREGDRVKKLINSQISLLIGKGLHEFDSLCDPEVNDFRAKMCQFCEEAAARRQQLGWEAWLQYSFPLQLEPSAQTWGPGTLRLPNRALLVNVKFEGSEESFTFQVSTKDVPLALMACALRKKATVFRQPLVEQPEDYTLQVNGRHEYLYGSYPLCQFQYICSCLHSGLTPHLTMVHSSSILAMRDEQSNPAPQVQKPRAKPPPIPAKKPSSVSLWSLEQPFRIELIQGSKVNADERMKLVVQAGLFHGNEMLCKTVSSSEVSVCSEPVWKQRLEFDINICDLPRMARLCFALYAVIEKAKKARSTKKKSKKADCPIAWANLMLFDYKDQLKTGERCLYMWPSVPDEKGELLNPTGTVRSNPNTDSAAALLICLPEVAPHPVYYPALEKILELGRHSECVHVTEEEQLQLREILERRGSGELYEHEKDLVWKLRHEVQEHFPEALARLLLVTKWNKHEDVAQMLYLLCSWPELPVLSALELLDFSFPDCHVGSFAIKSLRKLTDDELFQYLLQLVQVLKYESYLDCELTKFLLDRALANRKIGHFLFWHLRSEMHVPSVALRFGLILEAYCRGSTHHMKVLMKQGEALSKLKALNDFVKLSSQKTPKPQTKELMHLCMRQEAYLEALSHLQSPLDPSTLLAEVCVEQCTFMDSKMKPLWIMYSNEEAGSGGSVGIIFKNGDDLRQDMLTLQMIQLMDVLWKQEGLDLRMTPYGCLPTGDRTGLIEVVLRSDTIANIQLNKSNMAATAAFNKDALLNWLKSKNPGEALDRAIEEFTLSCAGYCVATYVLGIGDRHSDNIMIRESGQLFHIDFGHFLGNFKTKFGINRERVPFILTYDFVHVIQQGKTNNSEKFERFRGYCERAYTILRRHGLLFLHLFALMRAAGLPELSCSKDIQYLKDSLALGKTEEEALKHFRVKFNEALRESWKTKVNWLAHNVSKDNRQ
Sequence of p110δ (P27986 whole entry partner, species assumed): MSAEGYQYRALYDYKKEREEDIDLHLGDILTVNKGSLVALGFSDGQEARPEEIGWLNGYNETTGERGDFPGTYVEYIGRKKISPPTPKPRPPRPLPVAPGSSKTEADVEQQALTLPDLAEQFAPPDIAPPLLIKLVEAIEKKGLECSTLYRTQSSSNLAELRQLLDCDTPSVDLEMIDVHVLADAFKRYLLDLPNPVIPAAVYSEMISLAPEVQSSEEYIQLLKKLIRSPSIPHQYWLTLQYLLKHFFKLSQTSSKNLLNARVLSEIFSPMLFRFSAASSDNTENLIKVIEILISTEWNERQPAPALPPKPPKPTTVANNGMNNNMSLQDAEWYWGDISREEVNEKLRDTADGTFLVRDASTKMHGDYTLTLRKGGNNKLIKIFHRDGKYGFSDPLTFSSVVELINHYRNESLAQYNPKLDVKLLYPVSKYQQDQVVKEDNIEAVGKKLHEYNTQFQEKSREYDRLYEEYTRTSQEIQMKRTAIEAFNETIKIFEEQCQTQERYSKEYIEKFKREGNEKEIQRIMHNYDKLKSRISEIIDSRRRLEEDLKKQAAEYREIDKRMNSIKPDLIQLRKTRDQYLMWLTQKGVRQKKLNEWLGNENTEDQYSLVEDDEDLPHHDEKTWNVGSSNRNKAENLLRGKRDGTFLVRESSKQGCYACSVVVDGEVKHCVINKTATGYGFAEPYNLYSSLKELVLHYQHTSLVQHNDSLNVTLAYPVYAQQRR

p110α = p110α (Homo sapiens, UniProt P42336); settings: cited from earlier work
Sequence of p110α (P42336 whole entry, species assumed): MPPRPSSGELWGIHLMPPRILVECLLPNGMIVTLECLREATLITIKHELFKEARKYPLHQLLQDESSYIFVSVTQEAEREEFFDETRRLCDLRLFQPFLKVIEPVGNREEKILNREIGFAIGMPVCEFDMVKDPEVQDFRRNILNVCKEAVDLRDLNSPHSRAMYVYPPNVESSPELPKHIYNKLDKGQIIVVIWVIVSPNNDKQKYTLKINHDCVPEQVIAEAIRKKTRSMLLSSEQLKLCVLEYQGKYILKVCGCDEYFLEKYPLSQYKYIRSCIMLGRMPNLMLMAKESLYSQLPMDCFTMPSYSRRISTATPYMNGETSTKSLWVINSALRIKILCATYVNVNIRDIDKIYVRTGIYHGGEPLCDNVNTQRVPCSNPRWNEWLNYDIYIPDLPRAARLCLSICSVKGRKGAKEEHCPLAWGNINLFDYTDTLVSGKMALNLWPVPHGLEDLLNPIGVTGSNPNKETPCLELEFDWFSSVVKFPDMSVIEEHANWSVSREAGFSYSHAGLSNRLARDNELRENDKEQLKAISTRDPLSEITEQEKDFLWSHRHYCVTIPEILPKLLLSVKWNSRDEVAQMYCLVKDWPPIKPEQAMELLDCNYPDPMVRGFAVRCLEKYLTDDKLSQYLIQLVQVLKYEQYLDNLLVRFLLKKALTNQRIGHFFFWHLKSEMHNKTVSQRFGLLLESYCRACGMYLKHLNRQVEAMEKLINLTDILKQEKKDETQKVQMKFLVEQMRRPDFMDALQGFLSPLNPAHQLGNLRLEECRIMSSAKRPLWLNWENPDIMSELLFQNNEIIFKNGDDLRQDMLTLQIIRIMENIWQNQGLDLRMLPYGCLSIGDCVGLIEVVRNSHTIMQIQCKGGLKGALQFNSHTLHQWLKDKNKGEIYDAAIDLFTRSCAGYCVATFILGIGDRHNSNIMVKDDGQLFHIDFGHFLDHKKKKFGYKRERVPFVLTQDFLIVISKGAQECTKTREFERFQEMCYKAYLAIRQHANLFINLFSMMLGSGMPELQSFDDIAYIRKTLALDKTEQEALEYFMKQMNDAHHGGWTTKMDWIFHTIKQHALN

p110γ = p110γ (Homo sapiens, UniProt P48736); settings: cited from earlier work
Sequence of p110γ (P48736 whole entry, species assumed): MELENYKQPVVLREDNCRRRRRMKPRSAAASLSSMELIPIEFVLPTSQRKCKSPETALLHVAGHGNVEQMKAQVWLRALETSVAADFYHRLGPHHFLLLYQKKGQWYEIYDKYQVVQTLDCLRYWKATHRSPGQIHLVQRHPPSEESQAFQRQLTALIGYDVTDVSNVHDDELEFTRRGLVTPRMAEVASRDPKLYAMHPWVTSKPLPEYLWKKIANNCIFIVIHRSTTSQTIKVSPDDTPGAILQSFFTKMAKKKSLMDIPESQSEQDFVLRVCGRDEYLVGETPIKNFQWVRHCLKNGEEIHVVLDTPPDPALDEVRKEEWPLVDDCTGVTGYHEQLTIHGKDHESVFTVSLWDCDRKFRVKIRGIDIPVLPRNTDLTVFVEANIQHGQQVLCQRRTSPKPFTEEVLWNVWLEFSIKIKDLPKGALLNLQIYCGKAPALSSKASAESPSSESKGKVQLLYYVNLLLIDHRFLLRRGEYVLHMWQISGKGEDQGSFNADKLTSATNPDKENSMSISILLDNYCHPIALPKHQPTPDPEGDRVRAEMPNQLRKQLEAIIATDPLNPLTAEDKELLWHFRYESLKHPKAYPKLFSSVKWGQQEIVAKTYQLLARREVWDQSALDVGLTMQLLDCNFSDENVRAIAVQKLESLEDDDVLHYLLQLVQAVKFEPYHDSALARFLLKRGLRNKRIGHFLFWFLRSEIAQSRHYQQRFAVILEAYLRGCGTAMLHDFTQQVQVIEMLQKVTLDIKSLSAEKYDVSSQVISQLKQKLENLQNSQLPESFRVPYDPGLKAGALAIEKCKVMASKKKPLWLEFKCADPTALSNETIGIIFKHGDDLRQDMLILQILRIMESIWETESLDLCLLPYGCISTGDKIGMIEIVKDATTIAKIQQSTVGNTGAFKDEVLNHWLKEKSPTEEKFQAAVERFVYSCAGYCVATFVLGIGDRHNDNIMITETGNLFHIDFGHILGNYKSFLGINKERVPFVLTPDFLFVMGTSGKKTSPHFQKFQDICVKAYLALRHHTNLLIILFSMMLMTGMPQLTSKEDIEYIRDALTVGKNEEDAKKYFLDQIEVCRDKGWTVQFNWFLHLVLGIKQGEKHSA

## Cc1nc(NC(=O)N2CCC[C@H]2C(N)=O)sc1-c1csc(C(C)(C)C)n1 [A66]
[1]
  phenotype of CD8 T cells (TCM vs TEM) compared to non-treated cells: no differences in the phenotype

## CC[C@H](Nc1ncnc2[nH]cnc12)c1nc2cccc(F)c2c(=O)n1-c1ccccc1 [CAL-101]
[1]; D3, stim1, representative example, non-treated 4%
  percentage of TCM: 32%
[1]; D7, Stim 3, representative example, non-treated 36%
  percentage of terminally differentiated T-cells: 5%
[1]; D7, Stim3, representative example, non-treated 64%
  percentage of TEM cells (CD62LloCD44hi): 95%

## CS(=O)(=O)N1CCN(Cc2cc3nc(-c4cccc5[nH]ncc45)nc(N4CCOCC4)c3s2)CC1 [GDC-0941]
[2]; highest dose tested (279 nM)
  toxicity to CD8 T cells: toxic
[2]; with further stimulations (days 7 and 14), vs non-treated cells
  expansion of CD8 T cells: expand at a significantly high rate
[3]; GDC-0941, A66 (288 nM), TGX-221 (45 nM), CAL-101 (202.5 nM), re-stimulated days 7 and 14, supernatant after 24 hours
  ability of CD8 T cells to produce IFNγ and TNF: not affected
[3]; after re-stimulation (stimulation 3), normalized to GP100, GDC 99 nM, CAL-101 202.5 nM, listed as GDC
  IL-2 secretion: significantly higher levels of IL-2; also recorded: maintained a significantly high level of IL-2 secretion
[1]; GDC at the highest concentration, non-treated cells 96% TEM
  percentage of TCM phenotype (CD62LhiCD44hi): 37%
[1]; GDC treatment, after the third stimulation, non-treated 64%
  percentage of TEM: 93%
[1]; GDC treatment, after the third stimulation, non-treated less than 0.01
  percentage of TCM: 3.5%
[1]; listed as GDC
  phenotype of CD8 T cells (TCM vs TEM) compared to non-treated cells: high percentage of the TCM phenotype; also recorded: high percentage of TCM cells
  CD62L expression level: maintained high expression levels of CD62L
[1]; after the second and third stimulations
  phenotype of CD8 T cells (TEM, terminally differentiated) compared to non-treated or other inhibitors: higher percentage of TEM
[1]; after the third stimulation, highest GDC concentration, non-treated 36%
  percentage of terminally differentiated T-cells (CD62LloCD44lo): 4%
[1]
  CD62L expression level: maintains a high level of CD62L expression

## Cc1cc(C(C)Nc2ccccc2)c2nc(N3CCOCC3)cc(=O)n2c1 (centres unmarked) [TGX-221]
p110δ
  IC50: 0.1 µM
p110α
  IC50: 5 µM
p110γ
  IC50: > 10 µM
[1]
  phenotype of CD8 T cells (TCM vs TEM) compared to non-treated cells: no differences in the phenotype
